Laboratory results: patent publication US7947854B2, “Bis-cationic compounds and use thereof” (The University of Sydney, priority 2003, dated 2011)
Marks after values point to notes of the source that are not given here.

What was measured:
[1] = test system: secreted phospholipase B (LPL/LPTA activities); test: Radiometric assay, secreted LPL and LPTA activities (Lyso assay); assay type: biochemical, Cryptococcus neoformans H99; conditions: for % Inhibition LPL, Secretory Enzyme / % Inhibition LPTA, Secretory Enzyme: pH 4
How it was run: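 Cell-free supernatant from C. neoformans H99 (incubated 24 h at 37° C in imidazole buffer, pH 5.5) with 1 μg total protein and 200 μM lyso-PC incl. 1-[^14C]palmitoyl lyso-PC, 15 s reaction. LPL from substrate loss, LPTA from radiolabelled PC formed, after extraction and TLC; inhibitors tested at 25 and 250 μM, then 2.5 and 0.25 μM, inhibition vs inhibitor-free control, triplicate.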

[2] = test system: membrane-associated phospholipase B (PLB activity); test: Radiometric assay, membrane-associated PLB activity; assay type: biochemical, Cryptococcus neoformans H99; conditions: pH 4
Description: Fungal isolates and media. […] Isolate H99 was kindly supplied by Dr. Gary Cox (Duke University Medical Center, Durham, N.C., USA), and subcultured onto Sabouraud dextrose agar (SDA) at 30° C.
Cellular disruption to prepare membrane and cytosolic fractions. The cell pellet from the preparation of the supernatant, above, was also frozen at −70° C. After washing twice with imidazole buffer, it was disrupted in the presence of a protease inhibitor cocktail (P 8215 for fungal and yeast cells; 4-(2-aminoethyl)benzenesulfonyl fluoride hydrochloride, 100 mM, 1,10-phenanthroline, 500 mM, pepstatin A, 2.2 mM, E-64, 1.4 mM; Sigma) in a MiniBeadbeater-8 Cell Disrupter (MBB-8; Daintree Scientific, Tasmania, Australia) for three cycles of 1 min, alternating with a 1 min cooling period on ice. The homogenate was centrifuged at 14,000 g for 15 min to obtain the membrane (pellet) and the cytosolic (supernatant) fractions.
Radiometric assay method for phospholipases. Enzyme activities were measured as described previously in a final volume of 125 μL at 37° C. For the determination of secreted PLB activity, carrier dipalmitoyl phosphatidylcholine (DPPC, final concentration 800 μM) and 1,2-di[1-^14C] palmitoyl phosphatidylcholine (20,000 dpm) were dried under nitrogen and suspended in 125 mM imidazole acetate buffer (assay buffer, pH 4.0) by sonication using a Branson 450 sonifier. The reaction time was 22 min, using 1 μg total protein and PLB activity was determined by the rate of decrease of the radiolabelled PC substrate, with appearance of the label in free fatty acid. This assay also simultaneously allows for the determination of phospholipase A, C and D activities. These activities were measured by the appearance of radiolabel from PC in Lyso PC, diacylglycerol and phosphatidic acid, respectively.
All reactions were terminated by adding 0.5 mL of chloroform:methanol (2:1 v/v). The reaction products were extracted by the method as disclosed in Bligh, E. C. and W. J. Dyer. 1959 ‘A rapid method of total lipid extraction and purification.’ Can. J. Biochem. Physiol. 37:911-917, separated by TLC and quantified as previously described. In the case of PLC activity, the TLC plates were developed in petroleum ether (BP 60-80° C.): diethyl ether: acetic acid (90:15:1, v/v/v) instead of chloroform:methanol:water (65:25:4, v/v/v).
All experiments were carried out in duplicate or triplicate. The effects of pH on the various phospholipase activities were measured using 50 mM final concentration of imidazole-acetate buffer (pH range 3-5), MES buffer (pH range 6-8) and glycine buffer (pH 9-10). Controls for non-enzymic breakdown of substrates were included at all pH values. Cations, Triton X-100 and metal chelators were made up as stock solutions in water and diluted to the final concentration in the appropriate assay buffer.
Preparation of inhibitors and use in assays. The following compounds were tested (for structures, see FIG. 2): compound 1, 1,12-bis(tributylphosphonium)dodecane dibromide (Fluka AG, Buchs, Switzerland); compound 2, 1,10-bis(tributylammonium)-decane dibromide; compound 3, 1,12-bis(tributylammonium)do-decane dibromide (both synthesised in-house); compound 4, 1,10-bis(trimethylammonium)decane dibromide [“decamethonium”] (Sigma, St. Louis Mo., USA). All compounds were prepared as stock solutions of 700 μM in assay buffer containing 5 mM EDTA, which was then diluted serially with buffer to obtain solutions of 70, 7, 0.7 and 0.07 μM. In each assay, 45 μL of these solutions was used, and the final volume of 125 μL was made up of substrate, enzyme and buffer. The radiometric assay was carried out as above.

SMILES: CCCC[P+](CCCC)(CCCC)CCCCCCCCCCCC[P+](CCCC)(CCCC)CCCC [Compound 1, 1,12-bis(tributylphosphonium)dodecane dibromide]
- Lyso assay (% inhibition) LPL ([1]; 0.25 μM): 0%
- Lyso assay (% inhibition) LPTA ([1]; 0.25 μM): 0%
- % Inhibition LPL, Secretory Enzyme ([1]; 0.25 μM): 0%
- % Inhibition LPTA, Secretory Enzyme ([1]; 0.25 μM): 0%
- Lyso assay (% inhibition) LPL ([1]; 2.5 μM): 0%
- Lyso assay (% inhibition) LPTA ([1]; 2.5 μM): 0%
- % Inhibition LPL, Secretory Enzyme ([1]; 2.5 μM): 0%
- % Inhibition LPTA, Secretory Enzyme ([1]; 2.5 μM): 0%
- Lyso assay (% inhibition) LPL ([1]; 25 μM): 0%
- Lyso assay (% inhibition) LPTA ([1]; 25 μM): 0%
- % Inhibition LPL, Secretory Enzyme ([1]; 25 μM): 0%
- % Inhibition LPTA, Secretory Enzyme ([1]; 25 μM): 0%
- Lyso assay (% inhibition) LPL ([1]; 250 μM): 6%
- Lyso assay (% inhibition) LPTA ([1]; 250 μM): 4%
- % Inhibition LPL, Secretory Enzyme ([1]; 250 μM): 6.3* %
- % Inhibition LPTA, Secretory Enzyme ([1]; 250 μM): 3.7* %
- % Inhibition PLB, Membrane-bound Enzyme ([2]; 2.5 μM): 0%
- % Inhibition PLB, Membrane-bound Enzyme ([2]; 25 μM): 0%
- % Inhibition PLB, Membrane-bound Enzyme ([2]; 250 μM): 0%
